# Measurements: patent EP3827825A1, “USE OF 3, 4-DIARYLPYRAZOLES AS ANTIBACTERIAL AGENTS” (Wageningen Universiteit, priority 2019, dated 2021)
# Read-outs that look alike come from different tables or passages of the source.
# Assays:
# [1] = system: NRK-52E; experiment: Cell toxicity, Alamar blue assay, 24 hours exposure; type: cell-based; settings: Rattus norvegicus
# Method: Toxicity was primarily determined by measuring cytotoxicity with the Alamar blue assay. In short, cells (HEK293, NRK-52E and Caco-2) were plated in 96-well plates and cultured overnight. HKI compounds were diluted to concentrations ranging from 0.39 to 500 µg/mL in serum-free medium and added to the cells.
# After exposure, cells were incubated for 24 hours. Experiments were mostly performed by single measurement. […] After 24 hours HKIs were removed from the cells and Alamar blue was added, incubated for 45 minutes and fluorescence was measured on a spectrophotometer. Alamar blue measures the conversion of blue, low fluorescent resazurin into high fluorescent pink resorufin. This conversion can only be made in viable mitochondria in viable cells and therefore this dye provides a measure for cytotoxicity.
# [2] = system: M. marinum; experiment: Minimal inhibitory concentration (MIC), Middlebrook 7H9 broth, 3 days at 30 °C; type: cell-based, Mycobacterium marinum; settings: unit assumed
# Method: (§1) In short, a stock solution of 5 mg/mL of HKIs in DMSO was made. This stock was diluted to 50 µg/mL in broth in a 96 well plate. Dilutions were made (factor 2) directly in the plate with a multi-channel pipet. Bacteria cultured in suspension overnight were then added to the plate (except negative control) and the plate was incubated for 24 hours. After 24 hours the OD600 was measured using a spectrophotometer. A positive control (with bacteria, without HKI) was also measured on each plate. The MICs were not determined in duplo/triplicate in the same experiment, however, the MICs of several HKIs were measured in different experiments and no major differences (max. 1x dilution) were found in the MICs between the experiments.
# (§2) Bacterial strains used in this study for antibacterial susceptibility testing (Table S2) were propagated using standard microbiological procedures. Minimal inhibitory concentrations (MICs) were determined following a standard double-dilution method (42), 73. MICs were recorded as the lowest concentration of the compound where no visible growth was observed. After plating the dilutions around the MIC or growing them in fresh MH media, minimal bactericidal concentration (MBC) was recorded as the lowest concentration of the compound at which no colonies were formed or no growth was observed, respectively. For M. marinum, MICs were determined in Middlebrook 7H9 broth (Difco) and MICs were determined after 3 days incubation at 30 °C.
# (§3) Grow the bacterial colonies to be tested from single colonies on an agar plate in LB broth or suitable bacterial growth medium overnight at 37°C. Prepare a 5 mg/mL stock solution of compounds to be tested in DMSO. One 96-well plate per bacterial strain was prepared. First, put 50 uL of medium to each well. Add 48 µL of medium to all wells in row A. Pipet 2 µL of antimicrobial master stock into the top well (row A). Beware, the antimicrobial concentration will be diluted 2x after adding the bacterial culture. Total volume in each well will be 100 µL. In A11, pipet 2 µL of DMSO. Make a serial dilution from row A to row H, pipetting 50 µL from the previous row into the new one. Mix well by pipetting up and down. Discard the last 50 µL so that there is 50 µl in each well In a clean, new plastic pipetting cup, dilute the overnight bacterial culture 100 times. Add 100 µL of bacterial overnight culture to 9900 µL of medium. Mix the suspension well. Once the serial dilutions are complete for all antimicrobial compounds, add 50 µL of diluted overnight bacterial culture to each well (except column 12). Mix by pipetting or put the plate on the shaker. Per 2 plates, close with parafilm around the edges and place in the incubator overnight. After overnight culturing, measure bacterial growth on the SpectraMax. The lowest concentration where no growth is observed is the MIC. To determine the MIB pipette 5 µL from each well of the 96 well plate where now growth was observed on to an LB agar plate, without antimicrobial. Put the plates in the incubator to grow overnight. The minimal concentration where no growth can be seen on the agar plate is the MBC.
# [3] = system: S. aureus Newman; experiment: Minimal inhibitory concentration (MIC), double-dilution in broth, OD600; type: cell-based, Staphylococcus aureus Newman; settings: unit assumed
# Method: as §1, with “plate.” for “plate. The MICs were not determined in duplo/triplicate in the same experiment, however, the MICs of several HKIs were measured in different experiments and no major differences (max. 1x dilution) were found in the MICs between the experiments.”
# Bacterial strains used in this study for antibacterial susceptibility testing (Table S2) were propagated using standard microbiological procedures. Minimal inhibitory concentrations (MICs) were determined following a standard double-dilution method (42), 73. […] For M. marinum, MICs were determined in Middlebrook 7H9 broth (Difco) and MICs were determined after 3 days incubation at 30 °C.
# as §3
# [4] = system: E. faecium Van A; experiment: as above; type: cell-based, Enterococcus faecium; settings: unit assumed
# Method: as §1, §2, §3
# [5] = system: E. coli JW5503; type: cell-based, Escherichia coli; settings: unit assumed
# Method: as §1, §2, §3
# [6] = system: P. multocida; experiment: Minimal inhibitory concentration (MIC), double-dilution in broth, OD600; type: cell-based, Pasteurella multocida; settings: unit assumed
# Method: as §1, §2, §3
# [7] = system: S. suis; experiment: as above; type: cell-based, Streptococcus suis; settings: unit assumed
# Method: as §1, §2, §3
# [8] = read-out: IC50 NRK-52E (50 mg/mL stock)
Structure (SMILES),"IC50 [1, 8]",MIC M. marinum [2],MIC S. aureus Newman [3],MIC E. faecium Van A [4],MIC E. coli JW5503 [5],MIC P. multocida [6],MIC S. suis [7],"IC50 ([1]; read-out: IC50 NRK-52E (50 mg/mL stock), 50 mg/mL stock)"
"Cc1[nH]nc(-c2ccc(O)cc2O)c1-c1ccc(Br)cc1 [May-1, 4-[4-(4-bromophenyl)-5-methyl-1∼{H}-pyrazol-3-yl]resorcinol]",5.95 µg/mL,50 µg/mL,12.5 µg/mL,12.5 µg/mL,3.13 µg/mL,12.5 µg/mL,6.25 µg/mL,
"COc1ccc(-c2c(C(F)(F)F)n[nH]c2-c2ccc(O)cc2O)cc1OC [May-2, 4-[4-(3,4-dimethoxyphenyl)-5-(trifluoromethyl)-1∼{H}-pyrazol-3-yl]resorcinol]",13.9 µg/mL,> 50 µg/mL,50 µg/mL,50 µg/mL,,> 50 µg/mL,50 µg/mL,
"COc1ccc(-c2[nH]nc(C(F)(F)F)c2-c2ccc(OC)c(OC)c2)c(O)c1 [May-5, 2-[4-(3,4-dimethoxyphenyl)-5-(trifluoromethyl)-1∼{H}-pyrazol-3-yl]-5-methoxy-phenol]",6.11 µg/mL,> 50 µg/mL,25 µg/mL,,,> 50 µg/mL,50 µg/mL,
COc1ccc(-c2c(-c3ccc(OC)cc3O)n[nH]c2C(F)(F)F)cc1 [May-8],2.64 µg/mL,50 µg/mL,12.5 µg/mL,,3.13 µg/mL,> 50 µg/mL,12.5 µg/mL,
"COc1ccc(-c2c(-c3ccc(O)cc3O)n[nH]c2C(F)(F)F)cc1 [May-9, 4-[4-(4-methoxyphenyl)-5-(trifluoromethyl)-1∼{H}-pyrazol-3-yl]resorcinol]",~3.15 µg/mL,> 50 µg/mL,12.5 µg/mL,25 µg/mL,3.13 µg/mL,50 µg/mL,12.5 µg/mL,
"Oc1ccc(-c2[nH]nc(C(F)(F)F)c2-c2ccccc2)c(O)c1 [May-10, 4-[4-phenyl-5-(trifluoromethyl)-1∼{H}-pyrazol-3-yl]resorcinol]",~3.61 µg/mL,50 µg/mL,6.25 µg/mL,12.5 µg/mL,,25 µg/mL,12.5 µg/mL,
"COc1ccccc1-c1c(-c2ccc(O)cc2O)n[nH]c1C(F)(F)F [May-13, 4-[4-(2-methoxyphenyl)-5-(trifluoromethyl)-1∼{H}-pyrazol-3-yl]resorcinol]",8.06 µg/mL,> 50 µg/mL,25 µg/mL,50 µg/mL,,50 µg/mL,25 µg/mL,
"COc1ccc(-c2c(-c3ccc(OC)c(C)c3O)n[nH]c2C(F)(F)F)cc1 [Sep-1, 3-methoxy-6-[4-(4-methoxyphenyl)-5-(trifluoromethyl)-1∼{H}-pyrazol-3-yl]-2-methyl-phenol]",23.2 µg/mL,> 50 µg/mL,25 µg/mL,50 µg/mL,6.25 µg/mL,> 50 µg/mL,50 µg/mL,
"CCOc1ccc(-c2n[nH]c(C(F)(F)F)c2-c2ccccc2)c(O)c1C [Sep-3, 3-ethoxy-2-methyl-6-[4-phenyl-5-(trifluoromethyl)-1∼{H}-pyrazol-3-yl]phenol]",~15.5 µg/mL,> 50 µg/mL,12.5 µg/mL,25 µg/mL,6.25 µg/mL,> 50 µg/mL,25 µg/mL,
"Cc1ccc(COc2ccc(-c3n[nH]c(C(F)(F)F)c3-c3cccc4ccccc34)c(O)c2)cc1 [Sep-4, 5-(4-methylbenzyl)oxy-2-[4-(1-naphthyl)-5-(trifluoromethyl)-1∼{H}-pyrazol-3-yl]phenol]",13.9 µg/mL,50 µg/mL,3.13 µg/mL,25 µg/mL,> 50 µg/mL,> 50 µg/mL,25 µg/mL,
"CCCCCOc1ccc(-c2n[nH]c(C(F)(F)F)c2-c2ccccc2Cl)c(O)c1 [Sep-5, 2-[4-(2-chlorophenyl)-5-(trifluoromethyl)-1∼{H}-pyrazol-3-yl]-5-pentoxyphenol]",~7.46 µg/mL,50 µg/mL,3.13 µg/mL,12.5 µg/mL,> 50 µg/mL,> 50 µg/mL,12.5 µg/mL,
"COc1ccc(-c2c(C(F)(F)F)n[nH]c2-c2ccc(OCc3ccc([N+](=O)[O-])cc3)cc2O)cc1 [Sep-6, 2-[4-(4-methoxyphenyl)-5-(trifluoromethyl)-1∼{H}-pyrazol-3-yl]-5-(4-nitrobenzyl)oxyphenol]",8.42 µg/mL,50 µg/mL,3.13 µg/mL,6.25 µg/mL,12.5 µg/mL,> 50 µg/mL,12.5 µg/mL,
"C=C(C)COc1ccc(-c2[nH]nc(C(F)(F)F)c2-c2ccc(OC)cc2)c(O)c1 [Sep-7, 2-[4-(4-methoxyphenyl)-5-(trifluoromethyl)-1∼{H}-pyrazol-3-yl]-5-(2-methylallyloxy)phenol]",~7.49 µg/mL,> 50 µg/mL,6.25 µg/mL,12.5 µg/mL,6.25 µg/mL,> 50 µg/mL,12.5 µg/mL,
"COc1ccc(-c2c(C(F)(F)F)n[nH]c2-c2ccc(OCc3ccccc3F)cc2O)cc1 [Sep-8, 5-(2-fluorobenzyl)oxy-2-[4-(4-methoxyphenyl)-5-(trifluoromethyl)-1∼{H}-pyrazol-3-yl]phenol]",~14.5 µg/mL,> 50 µg/mL,3.13 µg/mL,6.25 µg/mL,50 µg/mL,> 50 µg/mL,12.5 µg/mL,
"Oc1cc(OCc2c(F)cccc2Cl)ccc1-c1[nH]nc(C(F)(F)F)c1-c1ccc(Cl)cc1 [Sep-11, 5-(2-chloro-6-fluorobenzyl)oxy-2-[4-(4-chlorophenyl)-5-(trifluoromethyl)-1∼{H}-pyrazol-3-yl]phenol]",11.8 µg/mL,> 50 µg/mL,3.13 µg/mL,6.25 µg/mL,> 50 µg/mL,> 50 µg/mL,12.5 µg/mL,
"COc1ccc(-c2n[nH]c(C)c2-c2ccc(Cl)cc2)c(O)c1 [Sep-21, 2-[4-(4-chlorophenyl)-5-methyl-1∼{H}-pyrazol-3-yl]-5-methoxy-phenol]",18.2 µg/mL,50 µg/mL,50 µg/mL,50 µg/mL,,> 50 µg/mL,> 50 µg/mL,
"COc1ccccc1-c1c(-c2ccc(OCC(=O)NN)cc2O)n[nH]c1C(F)(F)F [Sep-26, 2-[3-hydroxy-4-[4-(2-methoxyphenyl)-5-(trifluoromethyl)-1∼{H}-pyrazol-3-yl]phenoxy]acetohy drazide]",,> 50 µg/mL,> 50 µg/mL,25 µg/mL,,> 50 µg/mL,> 50 µg/mL,194 µg/mL
